Laboratory results from publication PMC12257544, “Fluorescent Isostere (Fluostere) of the Carboxylate: Design of hDHODH Fluorescent Inhibitors as Proof of Concept” (Journal of Medicinal Chemistry, 2025).
Values joined by “and” are separate entries in the source; they are usually repeats but may differ in a detail not shown here. Equal values may be shown once.

How the values were obtained:
THP-1 cells = experiment: Co-localization competition assay with Bay2402234 (Manders coefficient); type: cell-based, human; conditions: THP-1 cells, 10 μM, 3 h
Protocol: Colocalization between hDHODH inhibitors and mitochondria was quantified using Manders coefficient (Figure D).
THP-1 cells were incubated for 3 h with hDHODHi 11a and Bay240223410 at 10 μM, either alone or in combination. After incubation, the cells were washed and stained with Red-MitoTracker CMXRos (Thermo Fisher, Carlsbad, CA, USA) at a concentration of 100 nM for 30 min at 37 °C. Cells were imaged with a Leica TCS SP8 confocal system (Leica Microsystems) equipped with 4 excitation lasers (405 Diode, Argon, DPSS561, HeNe633). Images were acquired with a HCX PL APO 63×/1.4 NA oil-immersion objective with a resolution of 81 nm × 81 nm and were processed and analyzed with ImageJ software (Rasband, W.S., U.S. National Institutes of Health, Bethesda, […]). In particular, colocalization was analyzed with JACoP plugin and Manders’ coefficient was calculated

Experimental pKa = type: physicochemical
[1] = Photophysical characterization (absorption, emission, QY, lifetime); type: physicochemical; conditions: for Lifetime / QY (luminescence quantum yield) / Stokes shift / λabs / λem: in ACN
Protocol: UV–Vis absorption spectra were recorded on a Cary60 spectrometer. Photoemission spectra, luminescence lifetimes, and quantum yields were acquired with a HORIBA Jobin Yvon IBH Fluorolog-TCSPC spectrofluorometer equipped with a Quanta-φ integrating sphere. […] Emission-decay data were collected in 2048 channels to 10000 counts in the peak channel. IRF was measures using colloidal silica suspension in H2O to scatter light. Data were analyzed with the software DAS6 (TCSPC decay-analysis software) using a nonlinear least-squares method to fit of the decay to a sum of exponentials. The value of χ^2, residuals and the autocorrelation function (Durbin-Watson parameter) were used to determine the quality of the fit. For measurements in the presence of hDHODH, 11a was incubated, at 1 μM concentration in TRIS Buffer 0.1 mM (pH 8) with 0.1% DMSO, alone or with different concentrations of recombinant protein ranging from 31.5 to 504 nM concentration. After 5 min incubation UV–Vis absorption spectra were recorded on a Cary60 spectrophotometer and photoemission spectra were acquired with a HORIBA Jobin Yvon IBH Fluorolog-TCSPC spectrofluorometer with excitation λ of 366 nm and maximum of emission at 500 nm; a.u. data were analyzed with GraphPad Prism using One Site – Specific Binding equation.

[2] = set-up: method as in doi:10.1021/cr00002a004; conditions: substituent in position 3; cited from earlier work
hDHODH enzyme GST-tagged = hDHODH enzyme GST-tagged (Homo sapiens, UniProt Q02127); experiment: hDHODH inhibition assay (DCIP reduction)
Sequence of hDHODH enzyme GST-tagged (Q02127 whole entry): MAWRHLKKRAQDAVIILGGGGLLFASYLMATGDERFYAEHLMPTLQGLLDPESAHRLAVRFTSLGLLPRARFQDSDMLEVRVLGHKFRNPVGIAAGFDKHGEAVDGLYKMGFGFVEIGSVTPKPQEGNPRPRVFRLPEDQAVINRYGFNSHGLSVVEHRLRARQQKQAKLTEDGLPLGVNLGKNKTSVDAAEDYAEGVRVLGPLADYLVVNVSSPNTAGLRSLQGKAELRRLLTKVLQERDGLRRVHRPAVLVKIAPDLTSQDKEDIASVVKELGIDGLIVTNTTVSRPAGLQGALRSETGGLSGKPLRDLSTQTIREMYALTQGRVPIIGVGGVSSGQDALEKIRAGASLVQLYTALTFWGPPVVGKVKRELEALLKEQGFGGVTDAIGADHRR
Protocol: The enzyme (around 60 nM) was preincubated for 5 min at 37 °C in Tris-buffer solution (pH 8.0) with coenzyme Q10 (100 μM), tested compounds at different concentrations (final DMSO concentration 0.1% v/v), and DCIP (50 μM). The reaction was initiated by addition of DHO (500 μM) and the reduction was monitored at λ = 650 nm. […] Values are means ± SE of three independent experiments.

| SMILES | pKa (Experimental pKa) | Lifetime [1] | QY (luminescence quantum yield) [1] | Stokes shift [1] | λabs [1] | λem [1] | emission in the solid state [1] | fluorescence at the wavelength specific for 11a (THP-1 cells) | σ p (Hammett substituent constant) [2] | IC50 (hDHODH enzyme GST-tagged) |
| --- | --- | --- | --- | --- | --- | --- | --- | --- | --- | --- |
| CCn1c(CO)nn(-c2cc(O[C@@H](C)C(F)(F)F)c(C(=O)Nc3c(F)cccc3Cl)cc2F)c1=O [Bay2402234, reference compound] |  |  |  |  |  |  |  | no detectable fluorescence |  |  |
| Oc1cc2ccccn2n1 [Compound 1, Pyrazolo[1,5-a]pyridin-2-ol] | ~5 | 12 ns | 0.21 | 7567 cm^–1 | 310 nm | 405 nm |  |  |  |  |
| Cn1c(=O)cc2ccccn21 [Compound 1b, 1-Methylpyrazolo[1,5-a]pyridin-2(1H)-one] |  |  |  |  | 335 nm | 465 nm |  |  |  |  |
| CCOC(=O)c1c(=O)n(C)n2ccccc12 [Compound 2b, Ethyl 1-methyl-2-oxo-1,2-dihydropyrazolo[1,5-a]pyridine-3-carboxylate] |  | 11 ns | 0.26 | 6514 cm^–1 | 345 nm | 445 nm |  |  |  |  |
| CCOC(=O)c1c(OCc2ccccc2)nn2ccccc12 [Compound 2c, Ethyl 2-(Benzyloxy) Pyrazolo[1,5-a]pyridine-3-carboxylate] |  | 9 ns | 0.43 | 5942 cm^–1 | 310 nm | 380 nm |  |  |  |  |
| CCOC(=O)c1c(=O)n(Cc2ccccc2)n2ccccc12 [Compound 2d, Ethyl 1-benzyl-2-oxo-1,2-dihydropyrazolo[1,5-a]pyridine-3-carboxylate] |  | 12 ns | 0.30 | 6414 cm^–1 | 348 nm | 448 nm |  |  |  |  |
| CCOC(=O)c1c(O)nn2c(N(C)C)cccc12 [Compound 8a, Ethyl 7-(Dimethylamino)-2-hydroxypyrazolo[1,5-a]pyridine-3-carboxylate] |  | 3.7 ns | 0.06 | 5255 cm^–1 | 338 nm | 411 nm |  |  |  |  |
| COc1nn2c(Cl)cccc2c1-c1ccc2ncccc2c1 [Compound 9a, 6-(7-Chloro-2-methoxypyrazolo[1,5-a]pyridin-3-yl)quinoline] |  | 5.1 ns | <0.01 | 6832 cm^–1 | 350 nm |  |  |  |  |  |
| COc1nn2c(N(C)C)cccc2c1-c1ccc2ncccc2c1 [Compound 9b, 2-Methoxy-N,N-dimethyl-3-(quinolin-6-yl)pyrazolo[1,5-a]pyridin-7-amine] |  | 2.7 ns | 0.10 | 9508 cm^–1 | 362 nm | 552 nm |  |  |  |  |
| Oc1nn2ccccc2c1/C=C/c1cc(F)c(-c2ccccc2)c(F)c1F [Compound 11b] |  | <1 ns | 0.08 | 3531 cm^–1 | 450 nm | 542 nm and 535 nm |  |  |  |  |
| Oc1nn2ccccc2c1-c1ccc2cc(-c3ccccc3)ccc2n1 [Compound 12, 3-(6-Phenylquinolin-2-yl)pyrazolo[1,5-a]pyridin-2-ol] |  | 2.3 ns | <0.01 | 2385 cm^–1 | 390 nm | 430 nm |  |  |  | 16 µM |
| Oc1nn2ccccc2c1-c1ccc2cc(-c3ccccc3)cnc2c1 [Compound 13, 3-(3-Phenylquinolin-7-yl)pyrazolo[1,5-a]pyridin-2-ol] |  | 3.7 ns | 0.74 | 5288 cm^–1 | 370 nm | 460 nm |  |  |  | 33 µM |

Now from value to compound, other results behind:

| pKa (Experimental pKa) | Lifetime [1] | QY (luminescence quantum yield) [1] | Stokes shift [1] | λabs [1] | λem [1] | emission in the solid state [1] | SMILES | fluorescence at the wavelength specific for 11a (THP-1 cells) | σ p (Hammett substituent constant) [2] | IC50 (hDHODH enzyme GST-tagged) |
| --- | --- | --- | --- | --- | --- | --- | --- | --- | --- | --- |
|  |  |  |  | 305 nm | 400 nm |  | COc1cc2ccccn2n1 [Compound 1a, 2-Methoxypyrazolo[1,5-a]pyridine] |  |  |  |
|  | 9 ns | 0.45 | 5942 cm^–1 | 310 nm | 380 nm |  | CCOC(=O)c1c(OC)nn2ccccc12 [Compound 2a, Ethyl 2-methoxypyrazolo[1,5-a]pyridine-3-carboxylate] |  |  |  |
|  |  |  |  | 361 nm | n.e. ^a |  | O=[N+]([O-])c1c(O)nn2ccccc12 [Compound 3, 3-Nitropyrazolo[1,5-a]pyridin-2-ol] |  | 0.78 |  |
|  |  | <0.01 | 10169 cm^–1 | 312 nm | 457 nm |  | COc1nn2ccccc2c1NC(C)=O [Compound 3a, N-(2-methoxypyrazolo[1,5-a]pyridine-3-yl)acetamide] |  | 0.00 |  |
|  | 2 ns | <0.01 | 10379 cm^–1 | 315 nm | 468 nm |  | COc1nn2ccccc2c1NS(C)(=O)=O [Compound 3b, N-(2-methoxypyrazolo[1,5-a]pyridin-3-yl)methanesulfonamide] |  | 0.03 |  |
|  |  |  |  | 393 nm | n.e. | yellow light | COc1nn2ccccc2c1C=C(C#N)C#N [Compound 4a, 2-((2-Methoxypyrazolo[1,5-a]pyridin-3-yl)methylene)] |  |  |  |
|  |  |  |  | 395 nm | n.e. | yellow light | COC(=O)/C(C#N)=C/c1c(OC)nn2ccccc12 [Compound 4b, Methyl (e)-2-cyano-3-(2-methoxypyrazolo[1,5-a]pyridin-3-yl)acrylate] |  |  |  |
|  | 3.5 ns | <0.01 | 9851 cm^–1 | 335 nm | 500 nm |  | COc1nn2ccccc2c1/C=C/c1ccccc1 [Compound 5a, (E)-2-methoxy-3-styrylpyrazolo[1,5-a]pyridine] |  |  |  |
|  | 3.5 ns | <0.01 | 8964 cm^–1 | 350 nm | 510 nm |  | COc1nn2ccccc2c1/C=C/c1ccc(SC)cc1 [Compound 5b, (E)-2-methoxy-3-(4-(methylthio)styryl)pyrazolo[1,5-a]pyridine] |  |  |  |
|  | 3.5 ns | <0.01 | 5750 cm^–1 | 370 nm | 470 nm |  | COc1nn2ccccc2c1/C=C/c1ccc(S(C)(=O)=O)cc1 [Compound 5c, (E)-2-methoxy-3-(4-(methylsulfonyl)styryl)pyrazolo[1,5-a]pyridine] |  |  |  |
|  | 3.5 ns | <0.01 | 5178 cm^–1 | 378 nm | 470 nm |  | COc1nn2ccccc2c1/C=C/c1ccc(C#N)cc1 [Compound 5d, (E)-4-(2-(2-methoxypyrazolo[1,5-a]pyridin-3-yl)vinyl)benzonitrile] |  |  |  |
|  | <0.1 ns | <0.01 | 8368 cm^–1 | 426 nm | 662 nm |  | COc1nn2ccccc2c1/C=C/c1ccc([N+](=O)[O-])cc1 [Compound 5e, (E)-2-methoxy-3-(4-nitrostyryl) Pyrazolo[1,5-a]pyridine] |  |  |  |
|  | 4.3 ns | 0.13 | 7480 cm^–1 | 345 nm | 465 nm |  | COc1nn2ccccc2c1-c1ccc2ccccc2c1 [Compound 6, 2-Methoxy-3-(naphthalen-2-yl)pyrazolo[1,5-a]pyridine] |  |  |  |
|  | 2.8 ns | 0.52 | 3330 cm^–1 | 370 nm | 422 nm |  | COc1nn2ccccc2c1-c1ccc2ccccc2n1 [Compound 7a, 2-(2-Methoxypyrazolo[1,5-a]pyridin-3-yl)quinoline] |  |  |  |
|  | 5.5 ns | 0.42 | 5868 cm^–1 | 356 nm | 450 nm |  | COc1nn2ccccc2c1-c1ccc2cccnc2c1 [Compound 7b, 7-(2-Methoxypyrazolo[1,5-a]pyridin-3-yl)quinoline] |  |  |  |
|  | 5.3 ns | 0.24 | 6832 cm^–1 | 350 nm | 460 nm |  | COc1nn2ccccc2c1-c1ccc2ncccc2c1 [Compound 7c, 6-(2-Methoxypyrazolo[1,5-a]pyridin-3-yl)quinoline] |  |  |  |
